Results from patent US12600731B2, “Isoxazolo[5,4-H]quinazoline compounds as protein kinase inhibitors” (CHENGDU CYNOGEN BIO-PHARMACEUTICAL TECHNOLOGY CO., LTD., priority 2019, dated 2026).
One block for each compound: values may come before it.

Tests used:
CDK6/Cyclin D3 = CDK6/Cyclin D3 (Homo sapiens, UniProt Q00534); assay: Kinase activity assay, CDK6/Cyclin D3 (tested in a similar manner); format: biochemical; settings: tested in a similar manner to CDK4/cyclin D3
Method: (§1) The inhibitory effect of compounds against the kinase CDK4/cyclin D3 was detected by Caliper Mobility Shift Assay method. The final concentration of the compounds to be tested was set at 10 concentrations starting from 1 μM by 3-fold serial dilution. 5 μL of compounds at 5-fold final concentration and 10 μL of CDK4/cyclin D3 kinase solution at a final concentration of 10 nM was added to a 384-well reaction plate, respectively. The plate was pre-incubated for 10 min at room temperature (with negative control wells containing 10 μL of kinase buffer and 5 μL of 5% DMSO; positive control wells containing 10 μL of kinase solution and 5 μL of 5% DMSO). The reaction was initiated by adding 10 μL of ATP at a final concentration of 250 μM and the corresponding substrate peptide mixture at room temperature for 150 minutes. 30 μL of stop detection solution containing EDTA was added to stop the kinase reaction. Caliper EZ Reader was used to read the conversion rate. Inhibition rate %=(average conversion rate of positive control %−conversion rate of sample %)/(average conversion rate of positive control %−average conversion rate of negative control %). wherein: negative control wells represent the conversion rate readings of wells without enzymatic activity; positive control wells represent conversion readings for wells with no compound inhibition. The log(inhibitor) vs. response—Variable slope of the analysis software GraphPad Prism 5 was used with log concentration value as the X-axis and the percent inhibition rate as the Y-axis to fit the dose-response curve, the IC50 value of each compound on the enzyme activity was thus obtained. Calculation formula: Y=Bottom+(Top−Bottom)/(1+10^((Log IC50−X)*HillSlope)).
The IC50 values for CDK6/Cyclin D3 and CDK2/Cyclin A2 of compounds of the present disclosure were tested in a similar manner.

CDK4/cyclin D3 = CDK4/cyclin D3 (Homo sapiens, UniProt P11802); assay: Kinase activity assay, Caliper Mobility Shift Assay, CDK4/cyclin D3; format: biochemical; settings: 10 nM kinase, ATP 250 μM, 150 minutes at room temperature
Method: as §1

Sequence of CDK6/Cyclin D3 (Q00534 whole entry, species assumed): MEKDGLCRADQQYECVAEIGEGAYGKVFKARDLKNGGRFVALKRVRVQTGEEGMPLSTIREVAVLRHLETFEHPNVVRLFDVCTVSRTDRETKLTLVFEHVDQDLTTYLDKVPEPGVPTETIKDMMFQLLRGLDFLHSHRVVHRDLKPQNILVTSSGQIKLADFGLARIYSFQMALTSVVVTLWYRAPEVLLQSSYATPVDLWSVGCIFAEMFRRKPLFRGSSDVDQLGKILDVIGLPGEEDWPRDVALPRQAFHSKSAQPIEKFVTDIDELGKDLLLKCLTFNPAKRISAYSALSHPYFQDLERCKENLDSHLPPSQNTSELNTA
Sequence of CDK6/Cyclin D3 (P30281 whole entry partner, species assumed): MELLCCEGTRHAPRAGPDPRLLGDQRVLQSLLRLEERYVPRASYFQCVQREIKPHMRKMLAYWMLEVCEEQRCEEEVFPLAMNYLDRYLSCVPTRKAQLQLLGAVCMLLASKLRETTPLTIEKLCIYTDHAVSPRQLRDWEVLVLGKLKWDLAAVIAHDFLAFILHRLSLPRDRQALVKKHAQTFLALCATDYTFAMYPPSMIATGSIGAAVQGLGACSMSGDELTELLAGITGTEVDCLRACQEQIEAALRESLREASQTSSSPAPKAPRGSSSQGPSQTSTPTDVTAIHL
Sequence of CDK4/cyclin D3 (P11802 whole entry, species assumed): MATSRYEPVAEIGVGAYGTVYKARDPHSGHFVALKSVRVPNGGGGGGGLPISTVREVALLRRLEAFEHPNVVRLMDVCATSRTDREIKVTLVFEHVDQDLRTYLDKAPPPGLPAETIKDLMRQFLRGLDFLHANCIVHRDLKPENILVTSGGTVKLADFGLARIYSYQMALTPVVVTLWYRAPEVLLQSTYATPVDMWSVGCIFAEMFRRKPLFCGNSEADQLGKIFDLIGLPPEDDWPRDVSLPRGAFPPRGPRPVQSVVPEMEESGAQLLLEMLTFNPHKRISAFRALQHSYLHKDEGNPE
Sequence of CDK4/cyclin D3 (P30281 whole entry partner, species assumed): as the sequence (P30281 whole entry partner, species assumed) above

Compound: CC(C)c1noc2ccc3cnc(Nc4ccc(N5CCN(C)CC5)cn4)nc3c12 [Compound I-4, 9-isopropyl-N-(5-(4-methylpiperazin-1-yl)pyridin-2-yl)isoxazolo [5,4-H]quinazolin-2-amine]
IC50 (CDK6/Cyclin D3): 4 nM
IC50 (CDK4/cyclin D3): 1 nM

Compound: CC(C)c1noc2ccc3cnc(Nc4ccc(N5CCOCC5)cn4)nc3c12 [Compound I-8, 9-isopropyl-N-(5-morpholinopyridin-2-yl)isoxazolo[5,4-H] quinazolin-2-amine]
IC50 (CDK6/Cyclin D3): 15 nM
IC50 (CDK4/cyclin D3): 5 nM

Compound: CC(C)c1noc2ccc3cnc(Nc4ccc(N5CCN(C(C)C)CC5)cn4)nc3c12 [Compound I-9, 9-isopropyl-N-(5-(4-isopropylpiperazin-1-yl)pyridin-2-yl)isoxazolo [5,4-H]quinazolin-2-amine]
IC50 (CDK6/Cyclin D3): 14 nM
IC50 (CDK4/cyclin D3): 4 nM

Compound: CCN1CCN(c2ccc(Nc3ncc4ccc5onc(C(C)C)c5c4n3)nc2C)CC1 [Compound I-7, N-(5-(4-ethylpiperazin-1-yl)-6-methylpyridin-2-yl)-9-isopropylisoxazolo [5,4-H]quinazolin-2-amine]
IC50 (CDK6/Cyclin D3): 176 nM
IC50 (CDK4/cyclin D3): 36 nM

Compound: CCN1CCN(c2cnc(Nc3ncc4ccc5onc(C(C)C)c5c4n3)cc2C)CC1 [Compound I-6, N-(5-(4-ethylpiperazin-1-yl)-4-methylpyridin-2-yl)-9-isopropylisoxazolo[5,4-H] quinazolin-2-amine]
IC50 (CDK6/Cyclin D3): 377 nM
IC50 (CDK4/cyclin D3): 82 nM

Compound: CCN1CCN(c2ccc(Nc3ncc4ccc5onc(C(C)C)c5c4n3)nc2)CC1 [Compound I-5, N-(5-(4-ethylpiperazin-1-yl)pyridin-2-yl)-9-isopropylisoxazolo [5,4-H]quinazolin-2-amine]
IC50 (CDK6/Cyclin D3): 4 nM
IC50 (CDK4/cyclin D3): 1 nM

The remaining lines, values ahead:

IC50 (CDK6/Cyclin D3): 21 nM
IC50 (CDK4/cyclin D3): 5 nM
Compound: CC(C)c1noc2ccc3cnc(Nc4ccc(N5CCS(=O)(=O)CC5)cn4)nc3c12 [Compound I-17, 4-(6-((9-isopropylisoxazolo[5,4-H]quinazolin-2-yl)amino)pyridin-3-yl)thiomorpholine 1,1-dioxide]

IC50 (CDK6/Cyclin D3): 67 nM
IC50 (CDK4/cyclin D3): 21 nM
Compound: CC(C)c1noc2ccc3cnc(Nc4ccc(N5CCN(C6CC6)CC5)cn4)nc3c12 [Compound I-10, N-(5-(4-eyelopropylpiperazin-1-yl)pyridin-2-yl)-9-isopropylisoxazolo[5,4-H] quinazolin-2-amine]

IC50 (CDK6/Cyclin D3): 25 nM
IC50 (CDK4/cyclin D3): 7 nM
Compound: CC(C)c1noc2ccc3cnc(Nc4ccc(N5CCNCC5=O)cn4)nc3c12 [Compound I-16, 1-(6-((9-isopropylisoxazolo[5,4-H]quinazolin-2-yl)amino)pyridin-3-yl)piperazin-2-one]

IC50 (CDK6/Cyclin D3): 37 nM
IC50 (CDK4/cyclin D3): 7 nM
Compound: CC(C)Cc1noc2ccc3cnc(Nc4ccc(N5CCN(C)CC5)cn4)nc3c12 [Compound I-19, 9-isobutyl-N-(5-(4-methylpiperazin-1-yl)pyridin-2-yl)isoxazolo[5,4-H] quinazolin-2-amine]

IC50 (CDK6/Cyclin D3): 39 nM
IC50 (CDK4/cyclin D3): 7 nM
Compound: CCN1CCN(c2ccc(Nc3ncc4ccc5onc(CC(C)C)c5c4n3)nc2)CC1 [Compound I-20, N-(5-(4-ethylpiperazin-1-yl)pyridin-2-yl)-9-isobutylisoxazolo[5,4-H] quinazolin-2-amine]

IC50 (CDK6/Cyclin D3): 19 nM
IC50 (CDK4/cyclin D3): 7 nM
Compound: CC(C)c1noc2ccc3cnc(Nc4ccc(N5CCNCC5)nn4)nc3c12 [Compound I-15, 9-isopropyl-N-(6-(piperazin-1-yl)pyridazin-3-yl)isoxazolo[5,4-H]quinazolin-2-amine]

IC50 (CDK6/Cyclin D3): 40 nM
IC50 (CDK4/cyclin D3): 9 nM
Compound: CCN1CCN(Cc2ccc(Nc3ncc4ccc5onc(C(C)C)c5c4n3)nc2)CC1 [Compound I-12, N-(5-((4-ethylpiperazin-1-yl)methyl)pyridin-2-yl)-9-isopropylisoxazolo[5,4-H] quinazolin-2-amine]

IC50 (CDK6/Cyclin D3): 64 nM
IC50 (CDK4/cyclin D3): 11 nM
Compound: CCN1CCN(c2ccc(Nc3ncc4c(n3)-c3c(C(C)C)noc3CC4)nc2)CC1 [Compound I-25, N-(5-(4-ethylpiperazin-1-yl)pyridin-2-yl)-9-isopropyl-5,6-dihydroisoxazolo [5,4-H]quinazolin-2-amine]
